Data reported in patent US4620871A (priority 1980, dated 1986).

How the values were obtained:
[1] = tested on: Wheat; test: Stimulation of nutrient uptake, labelled phosphate, wheat (Example 24); conditions: for labelled phosphate in nucleic acid fraction: 200 ppm, control 17.4
Method: (§1) The compositions according to the invention were diluted with distilled water to an active agent concentration of 200 ppm, and leaf segments of wheat, maize and pea, weighing 200 mg each, were treated with the solutions. Thereafter the treated green leaf segments were treated for 0.5 hours with a solution of labelled phosphate ions (radioactivity: 30 μCi/50 ml). After this exposition period the treated leaf segments and the untreated controls were processed in a manner known per se to isolate the nucleic acid fractions, and the isolated nucleic acid fractions were dissolved in 6 n ammonium hydroxide solution. Stock solutions were prepared from the resulting solutions, and the amount of labelled phosphate ions present in the stock solutions were measured by liquid scintillation.

[2] = tested on: leaves of Pinto bean; test: Protein synthesis, glycine-2-14C incorporation in Pinto bean leaves (Example 19); conditions: 18 hours, zeatin 20 ppm, kinetin/benzyladenine 30 ppm, others 200 ppm
Method: The tests were performed on leaves of Pinto bean. The leaf segments were treated with an endogeneous cytokinin (zeatin), synthetic cytokinins (kinetin, benzyladenine) or with the compositions according to the invention, respectively, by floating the leaf segments on the solution of the test substance for 18 hours. Thereafter the leaf segments were exposed to a labelled amino acid (glycine-2-^14 C) for 3 hours, and the incorporation of the amino acid was determined by radiometry.

[3] = tested on: maize for silage; test: Green weight and nitrogen content of maize for silage (Example 28); format: in vivo; conditions: for Green weight: 2 kg/ha to soil, 200 m^2 parcels, control 365; for Total nitrogen content, absolute: control 0.30; for Real protein content, absolute: control 1.35; for Crude proteins, absolute: control 1.85; for Total carbon content, absolute: control 8.99; for Air-dry substance, absolute: control 20.57
Method: The tests were performed on parcels 200 m^2 in area. The compositions according to the invention were utilized as solid formulations, and were diluted with water prior to applying them onto the soil. The active agent was applied to the soil in an amount of 2 kg/ha directly before sowing. The green weight of the maize for silage, harvested from the treated and control parcels, was measured, and the dry substance content, crude protein content, real protein content, nitrogen content and carbon content of the green plants were determined.

[4] = tested on: sugar beet; test: Crop yield and sugar content of sugar beet (Example 32); format: in vivo; conditions: for Crop yield: 1 kg/ha seed + 2 x 2 kg/ha, control 541; for Sugar content: after harvesting, control 16.0; for Sugar yield: control 87.56; for Sugar yield, increase: in vivo
Method: Glomeruli of sugar beet were treated with the compositions according to the invention (a dose corresponding to 1 kg/ha was applied), and the glomeruli were sown into large parcels. The plants emerged were sprayed twice with the compositions according to the invention, applying a dose of 2 kg/ha, each.
The sugar contents of the plants grown on the treated and control parcels were examined in August.
The crop yield and the sugar content were also determined after harvesting.

[5] = tested on: Alfalfa; test: Total and protein nitrogen content of alfalfa, field (Example 26); format: in vivo; conditions: for Protein nitrogen content: control 2.25; for Total nitrogen content: control 3.36
Method: Alfalfa was treated with the compositions according to the invention under large-parcel field conditions. The tests were performed in fourfold replications on parcels 1 hectare in area, each. The oily compositions according to the invention were diluted with water and then sprayed onto the test parcels either once or twice.
The parcels were sprayed first when the soil was already covered with sprouting alfalfa shoots. The second treatment, if any, was performed two weeks later. The dose applied in all of the treatments was 2 kg/ha.
The total nitrogen content and the protein nitrogen content of alfalfa, harvested from the untreated, once-treated and twice-treated parcels, was measured.

[6] = tested on: hybrid maize; test: Grain yield of maize (Example 29); format: in vivo; conditions: for Grain yield, increase: in vivo; for Grain yield: seed dressing 0.5 kg/ha + sprays 3, 1, 2 kg/ha, control 132.8
Method: The compositions according to the invention were applied as seed dressing agents onto the sowing-seeds of hybrid maize in a dosis of 0.5 kg/ha. The powdery compositions were wetted with water prior to application. The stand was sprayed three times during the cultivation period: first at the four-leaves development stage with a dosis of 3 kg/ha, then prior to tasseling with a dosis of 1 kg/ha, and finally prior to pollen ripening with a dosis of 2 kg/ha. The crop was evaluated as May shelled corn.

[7] = tested on: soybean leaf segments; test: Stimulation of the protein level of soybean, glycine-14C incorporation (Example 18); conditions: 24 hours; for Radioactivity: 200 ppm, control 11.9
Method: The active agent to be tested was dissolved in distilled water to form a 200 ppm solution, and soybean leaf segments, weighing 200 mg, were floated on the surface of the solution for 24 hours. In the control test leaf segments, weighing 200 mg, were floated on the surface of distilled water.
The leaf segments were washed with distilled water, and then treated for 3 hours with 20 ml of a solution containing labelled amino acid (glycine-^14 C; activity: 2 μCi). After this exposition period the leaf segments were washed with an aboundant amount of water, and the protein content of the leaf segments was isolated in a manner known per se. Stock solution was prepared from the isolated protein, and the specific radioactivity of the solution was determined by liquid scintillation.

[8] = tested on: green parts of maize; test: Stimulation of plant photolysis, HTO, maize (Example 22); conditions: 2 hours; for Radioactivity: 500 ppm, control 4.64
Method: The compositions according to the invention were diluted with distilled water to an active agent content of 500 ppm, and green parts of maize, weighing 200 mg, were treated with the resulting solutions for 2 hours. Thereafter the treated green plant parts were treated for one hour with 10 μCi/50 ml HTO, then the plant parts were frozen with liquid nitorgen, triturated, subjected to chromatographic separation, and the radioactivity of the isolated glycerol aldehyde was determined.
In the control test the green parts of maize were treated with distilled water only.

[9] = tested on: leaves of Pinto beans; test: Stimulation of carbon dioxide fixation, Pinto beans (Example 21); conditions: zeatin 20, kinetin/benzyladenine 30, others 200 ppm; for Radioactivity A: A = in the light, control 2.14; for Radioactivity B: B = in the dark, control 0.18; for Radioactivity C: C = photosynthetic, control 2.32
Method: The tests were performed on leaves of Pinto beans. The leaf segments were treated with an endogeneous cytokinin (zeatin), synthetic cytokinins (kinetin, benzyladenine) or with the compositions according to the invention, respectively, by floating the leaf segments on the solution of the test substance for 18 hours, thereafter the leaf segments were exposed to labelled carbon dioxide (activity: 100 μCi/5000 ml of ^14 CO2) for 0.5 hours.

[10] = tested on: Maize; test: Stimulation of nutrient uptake, labelled phosphate, maize (Example 24); conditions: for labelled phosphate in nucleic acid fraction: 200 ppm, control 31.2
Method: as §1

[11] = tested on: leaves of Pinto bean; test: Stimulation of photolytic activity, HTO, Pinto bean (Example 23); conditions: 18 hours, zeatin 20, kinetin/benzyladenine 30, others 200 ppm; for Photolytic activity: control 7.64
Method: The stimulating effects of an endogeneous cytokinin (zeatin), synthetic cytokinins (kinetin, benzyladenine) and the cytokinin-like regulators according to the invention exerted on the photolytic activity connected to the decomposition of HTO were examined on leaves of Pinto bean. The leaf discs were floated for 18 hours on solutions of the substances under examination, and then exposed to a radioactivity of 200 μCi/100 ml for one hour to effect photolysis of HTO.

SMILES | labelled phosphate in nucleic acid fraction [1] | Stimulation [2] | Green weight [3] | Total nitrogen content, absolute ([3]; 2 kg/ha) | Real protein content, absolute ([3]; 2 kg/ha) | Crude proteins, absolute ([3]; 2 kg/ha) | Total carbon content, absolute ([3]; 2 kg/ha) | Air-dry substance, absolute ([3]; 2 kg/ha) | Crop yield [4] | Sugar content [4] | Sugar yield [4] | Sugar yield, increase [4] | Protein nitrogen content, stimulation ([5]; 1 treatment, 2 kg/ha) | Total nitrogen content, stimulation ([5]; 1 treatment, 2 kg/ha) | Protein nitrogen content ([5]; 1 treatment, 2 kg/ha) | Total nitrogen content ([5]; 1 treatment, 2 kg/ha) | Grain yield, increase [6] | Grain yield [6] | Radioactivity [7] | Radioactivity [8] | further results
N=C(N)N.N=C(N)N.Oc1nnc(O)c2ccccc12 [1,4-dihydroxyphthalazine diguanidine salt] | 29.3 1000 cpm/g | 39.0% | 374 kg | 0.40% | 1.71% | 2.52% | 9.99% | 22.79% | 608 q/ha | 16.45% | 100.01 q/ha | 14% | 54% | 24% | 3.48 % of dry substance | 4.17 % of dry substance | 37.0% | 181.9 q/ha | 15.5 mu Ci/100 mg | 11.42 dpm/mg dry weight | activation at 200 ppm ([1]; Triticum aestivum): 68.5%; activation at 200 ppm ([7]; Glycine max): 30.2%; activation at 500 ppm ([8]; Zea mays): 146%; Radioactivity A [9]: 3.38 dpm/200 mg fresh weight; Radioactivity B [9]: 0.31 dpm/200 mg fresh weight; Radioactivity C [9]: 3.69 dpm/200 mg fresh weight; Stimulation [9]: 59.3%; labelled phosphate in nucleic acid fraction [10]: 47.0 1000 cpm/g; activation at 200 ppm ([10]; Zea mays): 50.6%; Stimulation [11]: 79%; Photolytic activity [11]: 13.72 dpm/mg of glucose
CCC[n+]1c[nH]c2ccccc21.[Br-] [N--(n-Propyl)-benzimidazolium bromide, N-(n-propyl)-benzimidazolium bromide] | 22.8 1000 cpm/g | 42.7% | 389 kg | 0.86% | 1.4% | 2.25% | 10.27% | 23.48% | 877 q/ha | 17.05% | 149.49 q/ha | 70% | 8% | 4% | 2.48 % of dry substance | 3.51 % of dry substance | 12.4% | 149.3 q/ha | 13.7 mu Ci/100 mg | 8.76 dpm/mg dry weight | Radioactivity of the TCA-insoluble fraction ([2]; control 3.17): 4.52 1000 dpm/200 mg fresh weight; Air-dry substance, relative ([3]; 2 kg/ha): 14.10%; Crude proteins, relative ([3]; 2 kg/ha): 21.7%; Real protein content, relative ([3]; 2 kg/ha): 4.4%; Carbon/nitrogen ratio ([3]; 2 kg/ha, control 30.86): 28.67; Protein nitrogen content, stimulation ([5]; 2 treatments, 2 kg/ha each): 22%; Total nitrogen content, stimulation ([5]; 2 treatments, 2 kg/ha each): 13%; Protein nitrogen content ([5]; 2 treatments, 2 kg/ha each): 2.75 % of dry substance; Total nitrogen content ([5]; 2 treatments, 2 kg/ha each): 3.91 % of dry substance; Radioactivity A [9]: 3.92 dpm/200 mg fresh weight; Radioactivity B [9]: 0.34 dpm/200 mg fresh weight; Radioactivity C [9]: 4.26 dpm/200 mg fresh weight; Stimulation [9]: 84.0%; labelled phosphate in nucleic acid fraction [10]: 39.3 1000 cpm/g; Stimulation [11]: 84%; Photolytic activity [11]: 14.08 dpm/mg of glucose
